# From patent US20190336537A1, “GENERATING ATRIAL AND VENTRICULAR CARDIOMYOCYTE LINEAGES FROM HUMAN PLURIPOTENT STEM CELLS” (UNIVERSITY HEALTH NETWORK, priority 2016, published 2019)
# Columns and labels:
# Format in all cases: cell-based, human
# [1] = test system: HES3 NKX2-5:GFP hESC-derived day 20 EB populations; test: Flow cytometric and immunostaining analyses of day 20 EB populations (CTNT, MLC2V, NKX2-5, COUPTFII); set-up: frequency of NKX2-5+SIRPa+ cells in day 20 populations: dose or concentration left out as unconfirmed
# Procedure: (§1) For cardiac differentiation, we used a modified version of our embryoid body (EB)-based protocol (Kattman et al., 2011). hPSC populations at 80%-90% confluence were dissociated into single cells (TrypLE, ThermoFisher) and re-aggregated to form EBs in StemPro-34 media (ThermoFisher) containing penicillin/streptomycin (1%, ThermoFisher), L-glutamine (2 mM, ThermoFisher), trans-ferrin (150 μg/ml, ROCHE), ascorbic acid (50 μg/ml, Sigma), and monothioglycerol (50 μg/ml, Sigma), ROCK inhibitor Y-27632 (10 μM, TOCRIS) and rhBMP4 (1 ng/ml, R&D) for 18 h on an orbital shaker. At day 1, the EBs were transferred to mesoderm induction media consisting of StemPro-34 with above supplements (-ROCK inhibitor Y-27632) and rhBMP4, rhActivinA (R&D) and rhbFGF (5 ng/ml, R&D) at the indicated concentrations. At day 3, the EBs were harvested, washed with IMDM and transferred to cardiac mesoderm specification media consisting of StemPro-34, the Wnt inhibitor IWP2 (1 μM, TOCRIS) and rhVEGF (10 ng/mL, R&D). At day 5, the EBs were transferred to Stem Pro-34 with rhVEGF (5 ng/ml) for another 7 days and then to Stem Pro-34 media without additional cytokines for further 8 days. At day 20, HES3-NKX2-5gfp/w-derived cardiomyocytes were analyzed and isolated based on the expression of NKX2-5:GFP and SIRPa and a lack of CD90. Cardiomyocytes generated from non-transgenic hPSC lines were analyzed and isolated as SIRPa+CD90− populations. Media was changed every 3 days. Cultures were incubated in a low oxygen environment (5% CO2, 5% O2, 90% N2) for first 12 days and a normoxic environment (5% CO2) for the following 8 days in total of 20 days. The EBs were cultured in ultra-low attachment 6-well dishes (Corning) throughout the differentiation for maintaining suspension cultures.
# (§2) Day 2-6 EBs were dissociated with TrypLE for 2-4 min at room temperature (RT). Day 20 EBs were dissociated by incubation in Collagenase type 2 (0.5 mg/ml, Worthington) in HANKs buffer overnight at RT followed by TrypLE treatment as described above. The following antibodies were used for staining: anti-PDGFRa-PE (R&D Systems, 3:50), anti-CD235a-APC (BD PharMingen, 1:100), antiSIRPa-PeCy7 (Biolegend, 1:1000), anti-CD90-APC (BD PharMingen, 1:1000), anticardiac isoform of CTNT (ThermoFisher Scientific, 1:2000), or anti-myosin light chain 2 (Abcam, 1:1000). For unconjugated primary antibodies, the following secondary antibodies were used for detection: goat anti-mouse IgG-APC (BD Pharmigen, 1:250), or donkey anti-rabbit IgG-PE (Jackson ImmunoResearch, 1:250). Detailed antibody information is described in Table 2.
# For cell-surface marker analyses, cells were stained for 30 min at 4 degrees C. in FACS buffer consisting of PBS with 5% fetal calf serum (FCS) (Wisent) and 0.02% sodium azide. For intracellular staining, cells were fixed for 15 min at 4 degrees C. with 4% PFA in PBS followed by permeabilization using 90% methanol for 20 min at 4 degrees C. Cells were washed with PBS containing 0.5% BSA (Sigma) and stained with unconjugated primary antibodies in FACS buffer overnight at 4 degrees C. Stained cells were washed with PBS with 0.5% BSA and stained with secondary antibodies in FACS buffer for 1 h at 4 degrees C.
# Stained cells were analyzed using the LSR II Flow cytometer (BD). For cell sorting, stained cells were kept in IMDM with 0.5% FCS and sorted using Influx (BD), FACSAriall (BD), MoFlo-XDP (BD) and FACSAria Fusion (BD) at the Sickids/UHN flow cytometry facility. Data were analyzed using FlowJo software (Tree Star).
# Day 20 EBs were dissociated as described above and the cells plated onto 12 mm cover glasses (VWR) pre-coated with matrigel (25% v/v, BD). Cells were cultured for 3-5 days to enable the formation of adherent cell monolayers. Cells were fixed with
# 4% PFA in PBS for 10 min at room temperature and permeabilized with PBS containing 0.3% TritonX, 200 mM Glycine (Sigma) for 20 min at RT. Cells were blocked with PBS containing 10% FCS, 0.1% TritonX, and 2% BSA. […]
# [2] = test system: HES3 NKX2-5:GFP hESC-derived mesoderm; test: Specification of mesoderm populations to an atrial fate by ROH or RA (day 20 flow cytometry and qRT-PCR)
# Procedure: To determine if the ALDH^+ cells can synthesize RA, the ALDH^+PDGFRalpha^+ and ALDH^− PDGFRalpha^+ fractions were isolated from the day 4 3B/2A-induced population, and the cells were cultured as aggregates in retinol (ROH), RA, or DMSO (control) for 24 hr (FIGS. 3A and 3B). ALDH1A2 expression segregated to the ALDH^+ fraction, confirming the validity of aldefluor-based sorting strategy for isolating RALDH2-expressing cells (FIG. 3C).
# as §1
# Following optimization, either ATRA (0.5 μM, Sigma) or retinol (2 μM, Sigma) was included in the cardiac mesoderm specification media from days 3-5 for the generation of atrial cardiomyocytes.
# as §2
# The Aldefluor™ assay (STEMCELL Technologies) was performed according to the instruction provided by the manufacturer. Briefly, day 2-6 EBs were dissociated as described above. […] Stained cells were analyzed as described above. […]
# [3] = test system: HES3 NKX2-5:GFP hESC-derived mesoderm; test: as above; settings: day 4, 5B/4A induced
# [4] = day 3 RA-treated mesoderm versus non-treated control
smiles,measurement,setting,value
"CC1=C(/C=C/C(C)=C/C=C/C(C)=C/C(=O)O)C(C)(C)CCC1 [RA, all trans retinoic acid]",frequency of NKX2-5+SIRPa+ cells in day 20 populations,[1]; RA,dramatic reduction
same,proportion of NKX2-5-GFP− cells,"[1]; RA treatment days 3-5, day 20",did not influence
same,frequency of COUPTFII+ cells,[1]; [4],much higher frequency
same,proportion of MLC2V+ cells,[1]; [4],dramatic reduction
same,"atrial specification (MLC2V+, IRX4, KCNJ3, NR2F2)","[2]; 5B/12A-induced EBs, treated days 3-5",able to induce an atrial-like cardiomyocyte phenotype
same,"atrial specification (MLC2V+ frequency, IRX4, KCNJ3)","[2]; ALDH+PDGFRalpha+ fraction, day 4, 3B/2A induced, 24 hr treatment",similar
same,"atrial specification (MLC2V+, IRX4, NPPA, KCNJ3, NR2F2)",[3]; CD235a+ALDH− fraction,responded to RA
same,"atrial specification (MLC2V+, IRX4, NPPA, KCNJ3, NR2F2)",[3]; CD235a−ALDH+ fraction,responded to RA
